Experimental data: patent US20180311342A1, “IMMUNOSTIMULATING AGENT” (AJINOMOTO CO., INC., priority 2017, published 2018)

What was measured:
Assay type in all cases: in vivo, BALB/c mice
[1] = tested on: anti-OVA-specific IgG2a subclass antibody; test: Adjuvant activity test: anti-OVA-specific IgG2a subclass antibody in serum of OVA-immunized mice (ELISA); settings: Experimental Example 4: after secondary immunization; OVA 5 μg + compound 0.256 μmol dissolved in saline (no αCD), dorsal-subcutaneous; compared to OVA single administration group
[2] = tested on: anti-OVA-specific IgG2a subclass antibody; test: as above; settings: after secondary immunization, serum 2 weeks later; OVA 5 μg + compound 0.256 μmol in 5% αCD-added saline (Addavax mixed with saline at 1:1), dorsal-subcutaneous; compared to OVA single administration group
[3] = tested on: anti-OVA-specific IgE antibody; test: Allergy inducing activity test: anti-OVA-specific IgE antibody in serum of OVA-immunized mice (DS mouse IgE ELISA (OVA) kit); settings: for anti-OVA-specific IgE antibody production: after secondary immunization, dorsal-subcutaneous; for allergy inducing activity as compared to Addavax: conclusion from IgE after secondary immunization, compound in 5% αCD-added saline
Experimental: 8-Week-old female BALB/c mice were divided into groups (N=6), and each group was primarily immunized by dorsal-subcutaneous administration of (1) ovalbumin (OVA) (5 μg) dissolved in saline as an antigen (OVA single administration group), (2) OVA 5 μg and Addavax™ (mixed with saline at 1:1) dissolved in saline (Addavax™ administration group) as positive control adjuvant, (3) OVA 5 μg and SZ137 0.256 μmol dissolved or dispersed in 5% α-cyclodextrin (hereinafter to be simply referred to as αCD)-added saline (SZ137 administration group), (4) OVA (5 μg) and SZ138 (0.256 μmol) dissolved or dispersed in 5% αCD-added saline (SZ138 administration group), (5) OVA (5 μg) and SZ142 (0.256 μmol) dissolved or dispersed in 5% αCD-added saline (SZ142 administration group), (6) OVA (5 μg) and SZ144 (0.256 μmol) dissolved or dispersed in 5% αCD-added saline (SZ144 administration group), (7) OVA (5 μg) and SZ145 (0.256 μmol) dissolved or dispersed in 5% αCD-added saline (SZ145 administration group), (8) OVA (5 μg) and SZ146 (0.256 μmol) dissolved or dispersed in 5% αCD-added saline (SZ146 administration group), (9) OVA (5 μg) and SZ147 (0.256 μmol) dissolved or dispersed in 5% αCD-added saline (SZ147 administration group), (10) OVA (5 μg) and SZ148 (0.256 μmol) dissolved or dispersed in 5% αCD-added saline (SZ148 administration group), each per mouse. Two week later, the secondary immunization was carried out by dorsal-subcutaneous administration of solutions or dispersions similar to those of the above-mentioned (1)-(10) again. Two weeks from the secondary immunization, the whole blood was extracted under anesthesia, and the obtained serum sample was measured for anti-OVA-specific IgG1 subclass antibody, anti-OVA-specific IgG2a subclass antibody, and anti-OVA-specific IgE antibody.
The measurement method of the anti-OVA-specific IgE antibody in Experimental Example 1 and the following Experimental Examples 2-5, 8-10 is as follows.
DS mouse IgE ELISA (OVA) kit manufactured by DS Pharma Biomedical Co., Ltd. was used. The protocol is briefly shown below.
The serum sample and a standard reagent for drawing an analytical curve are diluted with a buffer and, after stirring, left standing at room temperature for 10 min. The sample and the standard solution are added to a plate bound with an IgE capture antibody in advance and, after stirring, the mixture is left standing at room temperature for 60 min. The mixture is washed three times with wash, HRP-labeled OVA is added, and the mixture is left standing at room temperature for 30 min. The mixture is washed three times with wash, a substrate solution is added, and the mixture is left standing in dark at room temperature for 30 min. A reaction quenching liquid is added, the mixture is stirred, and the absorbance (OD Value=450 nm) is immediately measured.
The standard used is one attached to the kit, the standard curve is drawn from the measured OD Value, and the concentration is calculated. […]

[4] = tested on: anti-OVA-specific IgG1 subclass antibody; test: Adjuvant activity test: anti-OVA-specific IgG1 subclass antibody in serum of OVA-immunized mice (ELISA); settings: after secondary immunization, serum 2 weeks later; OVA 5 μg + compound 0.256 μmol in 5% αCD-added saline (Addavax mixed with saline at 1:1), dorsal-subcutaneous; compared to OVA single administration group
[5] = tested on: anti-OVA-specific IgG1 subclass antibody; test: as above; settings: Experimental Example 4: after secondary immunization; OVA 5 μg + compound 0.256 μmol dissolved in saline (no αCD), dorsal-subcutaneous; compared to OVA single administration group
[6] = OVA 5 μg + compound 0.256 μmol in 5% αCD-added saline, compared to Addavax administration group

**Q.** How did the “anti-OVA-specific IgG2a subclass antibody production” value [1] turn out when `CCCCCCCCCCCCCCCC(=O)N[C@@H](CCCNC(=N)N)C(=O)NCCCCCCCCCCCC.Cl` [SZ111, N-[(1S)-1-(dodecylcarbamoyl)-4-guanidino-butyl]hexadecanamide hydrochloride] was run?
**A.** significantly increased

**Q.** And the “anti-OVA-specific IgG2a subclass antibody production” value [2]?
**A.** significantly increased

**Q.** And the “anti-OVA-specific IgE antibody production” value ([3]; OVA 5 μg + compound 0.256 μmol in 5% αCD-added saline (Addavax mixed with saline at 1:1), compared to OVA single administration group)?
**A.** did not increase significantly

**Q.** What about the “anti-OVA-specific IgE antibody production” value [3, 6] of the same compound?
**A.** lower

**Q.** And the “allergy inducing activity as compared to Addavax” value [3]?
**A.** may have a lower allergy inducing activity

**Q.** And the “anti-OVA-specific IgG1 subclass antibody production” value [4]?
**A.** significantly increased

**Q.** What about the “anti-OVA-specific IgG1 subclass antibody production” value [5] of the same compound?
**A.** significantly increased

**Q.** Which “anti-OVA-specific IgG2a subclass antibody production” value [2] does the source give for `CCCCCCCC/C=C/CCCCCCCC(=O)N[C@@H](CCCNC(=N)N)C(=O)NCCCCCCCCCCCC.Cl` [SZ161, (E)-N-[(1S)-1-(dodecylcarbamoyl)-4-guanidino-butyl]octadeca-9-enamide hydrochloride] here?
**A.** significantly increased

**Q.** What about the “anti-OVA-specific IgE antibody production” value [3, 6] of the same compound?
**A.** lower

**Q.** What about the “allergy inducing activity as compared to Addavax” value [3] of the same compound?
**A.** allergy inducing activity equivalent to or not more than that of Addavax™

**Q.** And the “anti-OVA-specific IgG1 subclass antibody production” value [4]?
**A.** significantly increased

**Q.** For `CCCCCCCCCCCCCCCCCCCCCC(=O)N[C@@H](CCCNC(=N)N)C(=O)NCCCCCCC.Cl` [SZ163, N-[(1S)-4-guanidino-1-(heptylcarbamoyl)butyl]docosanamide hydrochloride], which “anti-OVA-specific IgG2a subclass antibody production” value [2] is on record?
**A.** tended to increase

**Q.** And the “anti-OVA-specific IgE antibody production” value [3, 6]?
**A.** lower

**Q.** And the “allergy inducing activity as compared to Addavax” value [3]?
**A.** allergy inducing activity equivalent to or not more than that of Addavax™

**Q.** What about the “anti-OVA-specific IgG1 subclass antibody production” value [4] of the same compound?
**A.** tended to increase

**Q.** Which “anti-OVA-specific IgG2a subclass antibody production” value [2] does the source give for `CCCCCCCCCCCCCCCCCCCCCC(=O)N[C@@H](CCCN)C(=O)NCCCCCCCCCCCC.Cl` [SZ165, N-[(1S)-4-amino-1-(dodecylcarbamoyl)butyl]docosanamide hydrochloride] here?
**A.** tended to increase

**Q.** And the “anti-OVA-specific IgE antibody production” value [3, 6]?
**A.** lower

**Q.** And the “allergy inducing activity as compared to Addavax” value [3]?
**A.** allergy inducing activity equivalent to or not more than that of Addavax™

**Q.** And the “anti-OVA-specific IgG1 subclass antibody production” value [4]?
**A.** tended to increase

**Q.** With `CCCCCCCCCCCCCCCCCCCCCC(=O)N[C@@H](CCCCNC(=N)N)C(=O)NCCCCCCCCCCCC.Cl` [SZ166, N-[(1S)-1-(dodecylcarbamoyl)-5-guanidino-pentyl]docosanamide hydrochloride] as the compound, how does the “anti-OVA-specific IgG2a subclass antibody production” value [2] read?
**A.** tended to increase

**Q.** What about the “anti-OVA-specific IgE antibody production” value [3, 6] of the same compound?
**A.** lower

**Q.** What about the “allergy inducing activity as compared to Addavax” value [3] of the same compound?
**A.** allergy inducing activity equivalent to or not more than that of Addavax™

**Q.** What about the “anti-OVA-specific IgG1 subclass antibody production” value [4] of the same compound?
**A.** tended to increase

**Q.** For `CCCCCCCCCCCCCCCCCCCCCC(=O)N[C@@H](CCCCNC(C)=O)C(=O)NCCCCCCCCCCCC` [SZ167, N-[(1S)-5-acetamide-1-(dodecylcarbamoyl)pentyl]docosanamide], which “anti-OVA-specific IgG2a subclass antibody production” value [2] is on record?
**A.** tended to increase

**Q.** What about the “anti-OVA-specific IgE antibody production” value [3, 6] of the same compound?
**A.** lower

**Q.** What about the “allergy inducing activity as compared to Addavax” value [3] of the same compound?
**A.** allergy inducing activity equivalent to or not more than that of Addavax™

**Q.** What about the “anti-OVA-specific IgG1 subclass antibody production” value [4] of the same compound?
**A.** tended to increase

**Q.** Which results are given for `CCCCCCCCCCCCCCCCNC(=O)N[C@@H](CCCNC(=N)N)C(=O)NCCCCCC.Cl` [SZ168, (2S)-5-guanidino-2-(hexadecylcarbamoylamino)-N-hexyl-pentanamide hydrochloride]?
**A.** anti-OVA-specific IgG2a subclass antibody production [2]: tended to increase; anti-OVA-specific IgE antibody production [3, 6]: lower; allergy inducing activity as compared to Addavax [3]: allergy inducing activity equivalent to or not more than that of Addavax™; anti-OVA-specific IgG1 subclass antibody production [4]: tended to increase
